These results are taken from article PMC11877508, “Anti-inflammatory and Hepatoprotective Iridoid Glycosides from the Roots of Gomphandra mollis” (Journal of Natural Products, 2025).

Data set [1] is described as follows: HepG2 cytotoxicity test (MTT, 48 h). The note with it: human, HepG2 cells.
Protocol: (§1) Human hepatocellular carcinoma HepG2 cells were cultured in DMEM (Gibco) supplemented with 10% FBS (Gibco) and 1% antibiotic–antimycotic (Gibco, 15240062). Once cells reached approximately 80% confluence, they were washed with PBS and detached using trypsin-EDTA (Gibco, 25200072) at 37 °C for 5 min. Cells were then seeded into 96-well plates at a density of 3 × 10^4 cells per well (100 μL/well) and incubated for 24 h at 37 °C in a humidified atmosphere with 5% CO2.
(§2) After the initial incubation, the medium was replaced with 100 μL of fresh medium containing the test compounds, and the cells were incubated for an additional 48 h. Cell viability was determined using the MTT assay, following standard protocols with untreated cells serving as the control. The percentage of cell viability was calculated using the following formula: % viability = [(number of viable cells)/(total cells)] × 100. The concentration of the test compounds was set at 80 μM for the screening.
Data set [2] is described as follows: RAW264.7 cell viability (MTT) alongside the NO assay. The note with it: RAW264.7 cells.
Protocol: (§3) RAW264.7 cells were cultured in Dulbecco’s modified essential medium (DMEM, Gibco). The cells were incubated at 37 °C in DMEM with 10% fetal bovine serum (FBS, Gibco), penicillin (100 U/mL, Gibco), and streptomycin sulfate (100 μg/mL, Gibco) under a humidified atmosphere containing 5% CO2. Briefly, 2 × 10^4 cells/well treated for 24 h with vehicle or compounds were examined for cell viability based on the MTT (3-(4,5-dimethylthiazol-2-yl)-2,5-diphenyltetrazolium bromide assay) method.[60] Survival of macrophage cells after treatment with compounds was measured at a wavelength of 570 nm.
(§4) RAW264.7 cells (2 × 10^4 cells/well) were stimulated with or without 1 μg/mL lipopolysaccharide (LPS, Sigma) for 24 h in the presence or absence of the test compounds at different concentrations. Afterward, 100 μL of the cell culture supernatant was mixed with 100 μL of Griess reagent.[61] The remaining cells from the Griess assay were then utilized to determine their viability by using the MTT colorimetric assay described above.
For data set [3], the system named is NO production in LPS-stimulated RAW264.7 cells. The experiment in a line: Inhibition of nitric oxide (NO) production in LPS-stimulated RAW264.7 cells (Griess reagent). It is filed as cell-based. The note with it: Mus musculus, 1 μg/mL LPS, read-out: IC50 value, NO production inhibitory effect.
Protocol: as §3, §4
A short description of data set [4]: Hepatoprotective effect in acetaminophen-induced hepatotoxicity in HepG2 cell model (MTT). The data set is classed as cell-based. The note with it: human, HepG2 cells, HepG2, 6 mM APAP, control without APAP 100%, read-out: Cell viability, treated only with acetaminophen (APAP). As to the method:
Compounds that maintained cell viability above 80% were subsequently tested for their hepatoprotective properties using an acetaminophen-induced hepatotoxicity model in HepG2 cells. […] Afterward, the cells were treated with the test compounds. Eight hours later, hepatotoxicity was induced by adding acetaminophen (6 mM, Sigma-Aldrich A7085) to the wells. Cell viability was measured using the MTT assay 36 h after acetaminophen exposure, and the results were used to assess the hepatoprotective effects of the compounds.

Data set [5] can be described thus: in vitro.
Protocol: as §3, §4
A short description of data set [6]: in vitro. The note with it: human.
Protocol: as §1, §2

Read-outs that look alike come from different tables or passages of the source. Where only a bound is given, the exact number is not on record here.

As a reminder, the viability is a per cent measure of how many cells are alive, often set against a control. Usually IC50 stands for the concentration at which inhibition is half-maximal. `C=C[C@H]1[C@H](O[C@@H]2O[C@H](CO)[C@@H](O)[C@H](O)[C@H]2O)OC=C(C(=O)O[C@H]2C[C@@H]3C(C(=O)OC)=CO[C@@H](O[C@@H]4O[C@H](CO)[C@@H](O)[C@H](O)[C@H]4O)[C@@H]3[C@H]2C)[C@H]1C1=CO[C@H]2C[C@@H]1C[C@@H]1C(C(=O)O[C@H]3C[C@@H]4C(C(=O)OC)=CO[C@@H](O[C@@H]5O[C@H](CO)[C@@H](O)[C@H](O)[C@H]5O)[C@@H]4[C@H]3C)=CO[C@@H](O[C@@H]3O[C@H](CO)[C@@H](O)[C@H](O)[C@H]3O)[C@H]21` [Compound 9, gomphandranoside I]: the figures for the viability at 48 h, 80 µM in data set [1] and in data set [2] were above 80% and 98.3 ± 2.6%, respectively. Moreover, in data set [3] (RAW264.7, 24 h), the IC50 amounted to 12.9 ± 0.5 µM.

With `C=C[C@H]1[C@H](O[C@@H]2O[C@H](CO)[C@@H](O)[C@H](O)[C@H]2O)OC=C(C(=O)O[C@H]2C[C@@H]3C(C(=O)OC)=CO[C@@H](O[C@@H]4O[C@H](CO)[C@@H](O)[C@H](O)[C@H]4O)[C@@H]3[C@@H]2C)[C@H]1/C=C(\C=O)[C@@H]1C(C(=O)O[C@@H]2C[C@@H]3C(C(=O)OC)=CO[C@@H](O[C@@H]4O[C@H](CO)[C@@H](O)[C@H](O)[C@H]4O)[C@@H]3[C@@H]2C)=CO[C@@H](O[C@@H]2O[C@H](CO)[C@@H](O)[C@H](O)[C@H]2O)[C@@H]1C=C` [Compound 15, dipsanoside A], the viability at 48 h, 80 µM in data set [1] was above 80%; in data set [2] it was 99.5 ± 3.6%. The half-maximal inhibitory concentration (IC50) in data set [3] (RAW264.7, 24 h) was determined as 6.13 ± 0.5 µM.

Take `CC(=O)Nc1ccc(O)cc1` [acetaminophen (APAP), acetaminophen]: the viability at 36 h, 6 mM in data set [4] stood at 68.1%.

Regarding `C=CC1C(CC(OC)OC)C(C(=O)O[C@H]2CC3C(C(=O)OC)=CO[C@@H](O[C@@H]4O[C@H](CO)[C@@H](O)[C@H](O)[C@H]4O)C3[C@H]2C)=CO[C@H]1O[C@@H]1O[C@H](CO)[C@@H](O)[C@H](O)[C@H]1O` (stereo partly shown) [Compound 11, cantleyoside-dimethyl-acetal], the values for the viability at 48 h, 80 µM in data set [1] and in data set [2] were above 80% and 94.8 ± 3.7%, respectively. For the same compound, the IC50 in data set [3] (RAW264.7, 24 h) was 26.2 ± 1.3 µM.

`COC(=O)C1=CO[C@@H](O[C@@H]2O[C@H](CO)[C@@H](O)[C@H](O)[C@H]2O)[C@@H]2[C@@H](C)[C@@H](O)C[C@H]12` [Compound 18, loganin]: the viability at 48 h, 80 µM in data set [1] was above 80%; in data set [2], 98.1 ± 4%. In addition, the IC50 in data set [3] (RAW264.7, 24 h) worked out at 51.1 ± 1.8 µM.

Take `C=C[C@H]1[C@H](O[C@@H]2O[C@H](CO)[C@@H](O)[C@H](O)[C@H]2O)OC=C(C(=O)O[C@H]2C[C@@H]3C(C(=O)OC)=CO[C@@H](O[C@@H]4O[C@H](CO)[C@@H](O)[C@H](O)[C@H]4O)[C@@H]3[C@H]2C)[C@H]1C[C@H]1OC[C@H]2O[C@H](OC[C@H]3O[C@](O)(CO)[C@@H](O)[C@@H]3O)[C@H](O)[C@@H](O)[C@H]2O1` [Compound 5, gomphandranoside E]: the viability at 48 h, 80 µM in data set [1] was above 80%; in data set [2] it was 98.9 ± 3.1%. Also, the IC50 in data set [3] (RAW264.7, 24 h) is 17.7 ± 0.4 µM.

Consider `C=C[C@H]1[C@H](O[C@@H]2O[C@H](CO)[C@@H](O)[C@H](O)[C@H]2O)OC=C(C(=O)O[C@H]2C[C@@H]3C(C(=O)OC)=CO[C@@H](O[C@@H]4O[C@H](CO)[C@@H](O)[C@H](O)[C@H]4O)[C@@H]3[C@H]2C)[C@H]1C[C@@H]1O[C@@H]2[C@@H](O)[C@@H](OC[C@H]3O[C@@](CO)(O[C@H]4O[C@H](CO)[C@@H](O)[C@H](O)[C@H]4O)[C@@H](O)[C@@H]3O)O[C@H](CO)[C@@H]2O1` [Compound 6, gomphandranoside F], for which the viability at 48 h, 80 µM in data set [1] was above 80%; in data set [2], 94.6 ± 4.5%. In addition, the IC50 in data set [3] (RAW264.7, 24 h) amounted to 20.2 ± 1.1 µM.

Turning to `C=C[C@H]1[C@H](O[C@@H]2O[C@H](CO)[C@@H](O)[C@H](O)[C@H]2O)OC=C(C(=O)O[C@H]2C[C@@H]3C(C(=O)OC)=CO[C@@H](O[C@@H]4O[C@H](CO)[C@@H](O)[C@H](O)[C@H]4O)[C@@H]3[C@H]2C)[C@H]1C[C@H]1OC[C@H]2O[C@H](OC[C@H]3O[C@@](CO)(O[C@H]4O[C@H](CO)[C@@H](O)[C@H](O)[C@H]4O)[C@@H](O)[C@@H]3O)[C@H](O)[C@@H](O)[C@H]2O1` [Compound 4, gomphandranoside D], the viability at 48 h, 80 µM was above 80% in data set [1] and 95.1 ± 2.8% in data set [2]. In addition, the IC50 in data set [3] (RAW264.7, 24 h) is 19.5 ± 0.3 µM.

With `C=C[C@H]1[C@H](O[C@@H]2O[C@H](CO)[C@@H](O)[C@H](O)[C@H]2O)OC=C(C(=O)O[C@H]2C[C@@H]3C(C(=O)OC)=CO[C@@H](O[C@@H]4O[C@H](CO)[C@@H](O)[C@H](O)[C@H]4O)[C@@H]3[C@@H]2C)[C@H]1/C=C(\C=O)[C@@H]1C(C(=O)O[C@H]2C[C@@H]3C(C(=O)OC)=CO[C@@H](O[C@@H]4O[C@H](CO)[C@@H](O)[C@H](O)[C@H]4O)[C@@H]3[C@H]2C)=CO[C@@H](O[C@@H]2O[C@H](CO)[C@@H](O)[C@H](O)[C@H]2O)[C@@H]1C=C` [Compound 17, dipsanoside B], the viability at 48 h, 80 µM is above 80% in data set [1] and 94.2 ± 4.6% in data set [2]. The IC50 in data set [3] (RAW264.7, 24 h) came to 14.4 ± 1.5 µM.

Regarding `C=C[C@H]1[C@H](O[C@@H]2O[C@H](CO)[C@@H](O)[C@H](O)[C@H]2O)OC=C(C(=O)O[C@H]2C[C@@H]3CCOC(=O)[C@@H]3[C@H]2C)[C@H]1C[C@@H](O)O[C@@H](O)C[C@@H]1C(C(=O)O[C@H]2C[C@@H]3CCOC(=O)[C@@H]3[C@H]2C)=CO[C@@H](O[C@@H]2O[C@H](CO)[C@@H](O)[C@H](O)[C@H]2O)[C@@H]1C=C` [Compound 7, gomphandranoside G], the viability at 48 h, 80 µM is above 80% in data set [1] and 95.3 ± 2.4% in data set [2]. Besides, the IC50 in data set [3] (RAW264.7, 24 h) was found to be 14.7 ± 0.9 µM.

On to `C=C[C@H]1[C@H](O[C@@H]2O[C@H](CO)[C@@H](O)[C@H](O)[C@H]2O)OC=C2C(=O)OCC[C@H]21` [Compound 13, sweroside], for which the viability at 48 h, 80 µM in data set [5] is 94.7 ± 4.2%; in data set [6], above 80%. Further, the IC50 in data set [3] (24 h) was 36 ± 1.6 µM.
